Data set [1] has as its system S. griseolus ATCC 11796, 10001 added. The data set can be described thus: Percent conversion of herbicides by cultures (Example 16). It is filed as in vitro ADME, Streptomyces griseolus. To be noted: 3.0 mg herbicide and 3.0 mg 10001 in 25 ml broth; 24 hours. On the procedure: (§1) Separate cultures (50 ml) inoculated with S. lividans C37, S. lividans transformed with pCAO200SU1-FeS-B#9, S. griseolus ATCC11796, S. griseolus PH2003 transformed with pIJ425, or S. ariseolus PH2003 transformed with pCS325 were cultured in sporulation broth for 18 hours at 30° C. with shaking. Each culture was then resuspended in 25 ml fresh sporulation broth and 3.0 mg herbicide added. In the case of cultures of S. griseolus ATCC11796, a second culture containing herbicide and 3.0 mg 10001 was also prepared. Each culture was reincubated for 24 hours, then an aliquot of the medium was withdrawn and analyzed by HPLC. The percent conversion of herbicide was determined.

Data set [2] deals with S. griseolus PH2003 pIJ425. The data set is described as above. It is filed as in vitro ADME, Streptomyces griseolus. The following applies: 3.0 mg herbicide in 25 ml broth; 24 hours. The procedure: as §1

Molecules are shown by their SMILES.

Regarding `CCOC(=O)c1ccccc1S(=O)(=O)NC(=O)Nc1nc(Cl)cc(OC)n1` [compound 10001, N-[(4-chloro-6-methoxy-pyrimidin-2-yl)aminocarbonyl]-2-ethoxycarbonylbenzenesulfonamide], the “Percent Conversion” value in data set [1] and in data set [2] was 100% throughout.
